In patent US20120329784A1, “COMPOUNDS AND METHODS” (priority 2010, published 2012):
pIC50: −log10 of the molar value. Structures can show the parent of a compound that is named as a salt. Where two headings read alike, the source gives them in different places.

Molecular target: T1, Full length human TNNI3K (hTNNI3K) (Homo sapiens, UniProt Q59H18)
T1 construct: His-MBP-TEV-Full length human TNNI3K (hTNNI3K); His (N); MBP (N); TEV cleavage site (N); made in house; host or cells: baculovirus expression system (printed 'Baculokinase system')
T1 sequence (Q59H18 1-835): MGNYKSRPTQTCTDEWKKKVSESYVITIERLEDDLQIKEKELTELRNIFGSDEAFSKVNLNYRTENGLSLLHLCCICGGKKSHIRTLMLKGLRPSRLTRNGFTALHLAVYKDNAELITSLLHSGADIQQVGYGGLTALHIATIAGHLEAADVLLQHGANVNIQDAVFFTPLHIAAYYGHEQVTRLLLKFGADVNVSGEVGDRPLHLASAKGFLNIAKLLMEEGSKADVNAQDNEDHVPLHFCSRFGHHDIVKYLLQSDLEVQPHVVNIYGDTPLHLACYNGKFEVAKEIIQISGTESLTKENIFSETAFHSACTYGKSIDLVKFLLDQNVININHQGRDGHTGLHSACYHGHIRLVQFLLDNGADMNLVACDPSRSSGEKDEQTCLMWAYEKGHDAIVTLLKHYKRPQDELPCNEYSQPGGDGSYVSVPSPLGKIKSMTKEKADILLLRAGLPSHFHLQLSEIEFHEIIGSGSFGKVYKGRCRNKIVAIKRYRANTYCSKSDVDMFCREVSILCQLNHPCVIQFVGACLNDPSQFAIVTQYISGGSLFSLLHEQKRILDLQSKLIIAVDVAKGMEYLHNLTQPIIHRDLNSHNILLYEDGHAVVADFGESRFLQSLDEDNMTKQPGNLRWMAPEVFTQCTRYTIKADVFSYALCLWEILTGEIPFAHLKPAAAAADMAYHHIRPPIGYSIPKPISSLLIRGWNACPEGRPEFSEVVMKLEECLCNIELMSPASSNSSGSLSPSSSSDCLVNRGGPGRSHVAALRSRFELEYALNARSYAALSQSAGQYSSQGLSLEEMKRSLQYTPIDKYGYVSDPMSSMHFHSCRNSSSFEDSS
Assay: Fluorescent polarization assay of compound inhibition on hTNNI3K ATP binding (Biological Assay Method I)
Text: Materials: His-MBP-TEV-Full length human TNNI3K (hTNNI3K) was expressed in Baculokinase system and purified from amylase affinity column followed by Superdex200. […] The preparation of this fluorescent ligand is disclosed in U.S. Provisional Patent Application No. 61/237,815 filed Aug. 28, 2009, the disclosure of which is incorporated by reference herein. The other buffer components, including MgCl2 (Catalog Number M1028), Bis-Tris (Catalog Number B7535), DTT (Catalog Number D9779) and Chaps (Catalog Number C3023) were purchased from Sigma-Aldrich.
A fluorescent polarization assay was used to determine does response of compound inhibition on hTNNI3K ATP binding. […]
Fifty (50) nL of inhibitors in DMSO (or DMSO controls) were stamped into a 384-well low volume Greiner black plate, followed by addition of 5 μL of Solution 1 to column 18 and 5 μL Solution 2 to columns 1-17 and 19-24 of the plate. […] After that, the fluorescent polarization was measured on Analyst (ex/em: 485/530 nm, Dichroic: 505). […]

Row | IC50 (mean of a minimum of 2 experiments, displacement of fluorescent ligand from hTNNI3K ATP binding pocket, 60 min at rt, read-out: pXC50 (the source's name) (converted)) [nM] | SMILES | pIC50
1 | – | CNS(=O)(=O)c1cccc(Nc2cc(Nc3ccccc3)ncn2)c1 [Example 55, N-methyl-3-{[6-(phenylamino)-4-pyrimidinyl]amino}benzenesulfonamide trifluoroacetate] | ~7.00
2 | ~100 | CNS(=O)(=O)c1cccc(Nc2cc(Nc3nc(C)co3)ncn2)c1 [Example 284, N-methyl-3-({6-[(4-methyl-1,3-oxazol-2-yl)amino]-4-pyrimidinyl}amino)benzenesulfonamide] | –
